In ChEMBL document CHEMBL1201862, “PubChem BioAssay data set” (2004):
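1) Cells in 96-well plates. 2) Compound, 48 h, 5 concentrations. 3) Linear interpolation between surrounding doses. 4) Unreached endpoint = highest concentration. GI50 marks 50% less growth.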 Activity calls are given as the source filed them. Cut-off read from the data, not from the text of the source: active = GI50 up to about 1.1 µM and inactive = higher.

What was measured:
Test in all cases: growth of human tumour cells (NCI), 48 h
[1] = test system: HOP-62
[2] = test system: HCC 2998
[3] = test system: OVCAR-5
[4] = test system: DU-145
[5] = test system: SK-MEL-28
[6] = test system: MCF7
[7] = test system: PC-3
[8] = test system: HCT-116
[9] = test system: SF-295
[10] = test system: 786-0
[11] = test system: OVCAR-3
[12] = test system: MOLT-4
[13] = test system: NCI-H522
[14] = test system: T47D
[15] = test system: UACC-62
[16] = test system: SNB-75
[17] = test system: Malme-3M
[18] = test system: SNB-19
[19] = test system: HT-29

Measured: GI50

COc1cccc(/C=C\c2ccnc3ccccc23)c1
inactive: [1] > 10 µM | [2] > 10 µM | [3] > 10 µM | [4] > 10 µM | [5] > 10 µM | [6] > 10 µM | [7] > 10 µM | [8] > 10 µM | [9] > 10 µM | [10] > 10 µM | [11] > 10 µM | [12] > 10 µM | [13] > 10 µM | [14] > 10 µM | [15] > 10 µM | [16] > 10 µM | [17] > 10 µM | [18] > 10 µM | [19] > 10 µM

OC1CCC(COC(c2ccccc2)(c2ccccc2)c2ccccc2)O1 (stereo not drawn)
inactive: [1] 19.6 µM | [2] 16.4 µM | [3] 22.9 µM | [4] 20.8 µM | [5] 18 µM | [6] 17.1 µM | [7] 10.7 µM | [8] 16.7 µM | [9] 15.9 µM | [10] 19.4 µM | [11] 18.4 µM | [12] 11.1 µM | [13] 17.7 µM | [14] 20.2 µM | [15] 17.2 µM | [16] 13.4 µM | [17] 17.9 µM | [18] 21.1 µM | [19] 18.3 µM

NS(=O)(=O)c1c(O)c2ccccc2oc1=O
inactive: [1] > 100 µM | [2] > 100 µM | [3] > 100 µM | [4] > 100 µM | [5] > 100 µM | [6] > 100 µM | [7] > 100 µM | [8] > 100 µM | [9] > 100 µM | [10] > 100 µM | [11] > 100 µM | [12] > 100 µM | [13] > 100 µM | [14] > 100 µM | [15] > 100 µM | [16] > 100 µM | [17] > 100 µM | [18] > 100 µM | [19] > 100 µM

CC(C)C/N=C(\N)N=C(N)N
inactive: [1] > 100 µM | [2] > 100 µM | [3] > 100 µM | [4] > 100 µM | [5] > 100 µM | [6] > 100 µM | [7] > 100 µM | [8] > 100 µM | [9] > 100 µM | [10] > 100 µM | [11] > 100 µM | [12] > 100 µM | [13] > 100 µM | [14] > 100 µM | [15] > 100 µM | [16] > 100 µM | [17] > 100 µM | [18] > 100 µM | [19] > 100 µM

Cc1occc1C(=S)Nc1ccc(Cl)c(C(=O)OC(C)C2CC2)c1 (stereo not drawn)
inactive: [1] 17.8 µM | [2] 20.3 µM | [3] 23.4 µM | [4] 28.1 µM | [5] 57.9 µM | [6] 26 µM | [7] 18.9 µM | [8] 26.5 µM | [9] 17.2 µM | [10] 19.3 µM | [11] 16.6 µM | [12] 17.4 µM | [13] 14.4 µM | [14] 19.1 µM | [15] 22.8 µM | [16] 20.4 µM | [17] 16.4 µM | [18] 17.3 µM | [19] 20.6 µM

Clc1ccc(-c2nn3c(CCCCCCCCc4nnc5sc(-c6ccc(Cl)cc6)nn45)nnc3s2)cc1
inactive: [1] 26.4 µM | [2] 48.3 µM | [3] 36.3 µM | [4] 11.7 µM | [5] 23.6 µM | [6] 5.81 µM | [7] 11.5 µM | [8] 15.9 µM | [9] 17.6 µM | [10] 20.1 µM | [11] 19.8 µM | [12] 7.69 µM | [13] 7.91 µM | [14] 4.67 µM | [15] 32.4 µM | [16] 19.9 µM | [17] 45.2 µM | [18] 20.6 µM | [19] 12.4 µM

COc1ccc(-c2nc3ccc(C)cc3o2)c(OC)c1
inactive: [1] 26.8 µM | [2] 14.9 µM | [3] 14.9 µM | [4] 25.8 µM | [5] 55.7 µM | [6] 30 µM | [7] 24.3 µM | [8] 17.9 µM | [9] 19.9 µM | [10] 21.4 µM | [11] 15.7 µM | [12] 11.3 µM | [13] 18.8 µM | [14] 30.1 µM | [15] 23.5 µM | [16] 16.7 µM | [17] 21.2 µM | [18] 7.41 µM | [19] 5.28 µM
